This assay relates to CEM cells HIV-1 protection, formazan growth assay. Description: NCI AIDS Antiviral Assay. The note with it: for IC50: measured here: growth of uninfected CEM cells. In a few lines: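 Steps: treat uninfected and HIV-1-infected human CEM cells at five drug levels; quantify growth by soluble formazan; retest any compound reaching 50% protection; classify actives from the retest.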

The values that follow come from PubChem BioAssay AID179 (DTP/NCI, 2004).

Where “and” joins values, the source holds several entries; their conditions need not be identical. Equal values may be shown once. Calls of active or inactive are those of the source.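 The calls were made as follows: active = compounds giving half or more protection of infected cells from virus-caused growth loss, again on retest; inactive = the rest.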

For the molecule `COc1ccc(-c2c(N)cnc(C(=O)O)c2C)c(O)c1OC`, the outcome was inactive.

For `O=c1c2ccccc2[se]n1-c1cccnc1`, the concentration giving a half-maximal response (EC50) is 7.94 µM and the half-inhibitory concentration (IC50) was found to be 36.3 µM.

Consider `CC1(C)OP23(NC(=O)OC2(C(F)(F)F)c2ccccc2O3)OC1(C)C` (centres undefined), for which the EC50 was > 245 µM and the IC50 was > 245 µM.

Take `O=C(NC(Cl)(C(F)(F)F)C(F)(F)F)c1ccc(F)cc1`: the EC50 is > 200 µM and the IC50 was > 200 µM.

With `CN(C)c1nc(N(C)C)n2nc(-c3ccccc3[N+](=O)[O-])nc2n1`, the EC50 is > 21.9 µM and the IC50 stood at 0.00708 µM.

As for `CC1=Nc2c([nH]c(=S)[nH]c2=O)NC(c2ccc(Cl)c(Cl)c2)C1` (centres undefined), the EC50 was > 7.76 µM and the half-inhibitory concentration (IC50) is > 7.76 µM.

Turning to `O=C(/C(=N/N(C(=O)c1ccccc1)c1ccccc1)c1ccccc1)c1ccccc1`, the result was inactive.

`Cc1cc(O)cc(O)c1N=Nc1ccc([N+](=O)[O-])cc1`: the EC50 is > 200 µM and the 50% inhibitory concentration (IC50) stood at 3.47 µM.

`COc1cc2c(cc1OC)C(Cc1ccccc1CCCl)=NCC2`: the EC50 is > 200 µM and the IC50 is 29.5 µM.

As to `Clc1cc2nncc(N3CC3)c2cc1Cl`, the outcome was inactive.

For `O=C(O)C12CC3CC(C1)C2C=C3P(=O)(O)O` (centres undefined), the EC50 is > 1020 µM and the half-inhibitory concentration (IC50) was > 1020 µM.

Consider `O=C(Nc1cccc(C(F)(F)F)c1)c1cc(-c2ccccc2)nc(=S)[nH]1`, for which the EC50 was > 661 µM and the IC50 is > 661 µM.

For the molecule `Cc1c(Cl)ccc2c(=O)c3cccc(CC(=O)O)c3oc12`, the EC50 was > 200 µM and the IC50 came to 79.4 µM.

Take `COc1ccccc1NC(=O)C1=C(C)NC(C)=C(C(=O)Nc2ccccc2OC)C1c1ccccc1OC`: the EC50 is > 19.5 µM and the half-inhibitory concentration (IC50) is > 19.5 µM.

Turning to `CC(=O)C(=Cc1ccc(F)cc1)C(C)=O`, the EC50 was > 871 µM and the 50% inhibitory concentration (IC50) stood at 38 µM.

Take `COc1cc(/C=C2\C=Cc3ccccc32)ccc1N(C)C`: the EC50 was > 36.3 µM and the IC50 came to 24 µM.

For `O=S1(=O)c2ccccc2-c2ccccc21`, the result was inactive.

Regarding `CCOC(=O)CNC(=O)c1[nH]cnc1/N=N/N(C)C`, the result was inactive and the half-inhibitory concentration (IC50) stood at 933 µM.

On to `COc1cc(N(C)C)c(OC)cc1/C=C1\C=Cc2ccccc21`, for which the EC50 was > 17 µM and the IC50 was > 17 µM.

As to `Clc1ccc(SCCCCCCCCCCSc2ccc(Cl)cc2)cc1`, the EC50 is > 23.4 µM and the IC50 is > 23.4 µM.

As for `C[Si](C)(/C=C(\Br)CCOC1CCCCO1)c1ccccc1` (centres undefined), the outcome was inactive.

Regarding `Cc1cc2ncn(C3CCCO3)c2cc1C` (centres undefined), the EC50 is > 200 µM and the IC50 was > 200 µM.

For `CN1c2ccccc2NP1(=S)Oc1ccccc1` (centres undefined), the EC50 was > 93.3 µM and the concentration for half-maximal inhibition (IC50) was > 93.3 µM.

For the molecule `Cc1nnc(N2C(=O)C(=Cc3ccc(Cl)cc3)N=C2c2ccc(Cl)cc2)nc1/C=C\c1ccc(N(C)C)cc1`, the EC50 was 47.9 µM and the IC50 was 110 µM.

Consider `COc1cc2c3c(c1OC)-c1cc4c(cc1CC3(C#N)N(C(=O)c1ccccc1)CC2)OCO4` (centres undefined), for which the result was inactive.

Consider `CC(=O)OCC1OC(SC2OC(COC(C)=O)C(OC(C)=O)C(OC(C)=O)C2OC(C)=O)C(OC(C)=O)C(OC(C)=O)C1OC(C)=O` (centres undefined), for which the EC50 is 97.7 µM and the 50% inhibitory concentration (IC50) was > 200 µM.

Consider `O=[N+]([O-])c1cc(C(F)(F)F)ccc1SSc1ccc(C(F)(F)F)cc1[N+](=O)[O-]`, for which the EC50 was > 200 µM; the 50% inhibitory concentration (IC50) is 24.5 µM and 13.2 µM.

As for `CC1CC(C)(C)N=C(C(C)CC2CCCCC2)O1` (centres undefined), the EC50 was > 200 µM and the IC50 is 21.9 µM.

Consider `CCOC(=O)c1ccc(NC(NC(=O)CC)(C(F)(F)F)C(F)(F)F)cc1`, for which the EC50 was > 200 µM and the IC50 is 24.5 µM.

On to `CN1CCN(C(=S)N(C(=O)c2cccs2)C2CCCCC2)CC1`, for which the EC50 is > 195 µM and the half-maximal inhibitory concentration (IC50) came to 91.2 µM.

Take `CC(NCCCCNC(C)C(=O)O)C(=O)O` (centres undefined): the EC50 is > 631 µM and the IC50 is > 631 µM.

In the case of `CN1CNC2C(=O)CCC2c2ccccc21` (centres undefined), the EC50 is > 1150 µM and the IC50 is 676 µM.

Turning to `O=c1c(C(c2ccc([N+](=O)[O-])cc2)c2c(O)c3ccccc3n(-c3ccccc3)c2=O)c(O)c2ccccc2n1-c1ccccc1`, the EC50 was > 11.7 µM and the half-inhibitory concentration (IC50) is > 11.7 µM.

For `CCOC(=O)NN(CCOS(=O)(=O)c1ccc(C)cc1)CCOS(=O)(=O)c1ccc(C)cc1`, the EC50 is > 200 µM and the IC50 came to 120 µM.

Turning to `O=C(c1ccco1)N(C(=S)N1CCN(c2ccccn2)CC1)C1CCCCC1`, the EC50 was > 46.8 µM and the IC50 turned out to be 35.5 µM.

For `COC(=O)CSc1n[nH]c(-c2ccc(O)c([N+](=O)[O-])c2)n1`, the EC50 was > 115 µM and the IC50 was > 115 µM.

For the molecule `Cc1c2cc[nH]c(=O)c2cc2c(=O)c3cnccc3[nH]c12`, the EC50 is > 1.95 µM and the IC50 is > 1.95 µM.

As to `Nc1c(N=Nc2ccc(-c3ccc(N=Nc4cc(S(=O)(=O)O)c5ccccc5c4O)cc3)cc2)cc(S(=O)(=O)O)c2ccccc12`, the EC50 is 9.12 µM and the IC50 was > 100 µM.

Turning to `CCC[CH2][Sn]([CH2]CCC)([O]C(=O)c1ccc(C)c(N)c1)[O]C(=O)c1ccc(C)c(N)c1`, the EC50 was > 18.6 µM and the concentration for half-maximal inhibition (IC50) came out at 0.457 µM.

On to `CN(c1ccc(/C=C/c2ccccc2)cc1)P1(=O)NCCCO1` (centres undefined), for which the EC50 is > 41.7 µM and the IC50 stood at 28.2 µM.

As for `CC(=O)ON(C)C1CC(=O)OC1CO[Si](C)(C)C(C)(C)C` (centres undefined), the EC50 is > 200 µM and the IC50 was determined as 93.3 µM.

On to `c1ccc2c(c1)Cc1c(Cc3csc4ccccc34)ccc3cccc-2c13`, for which the EC50 was > 7.24 µM and the concentration for half-maximal inhibition (IC50) is > 7.24 µM.

For `Cc1nc2c(=O)[nH]c(=O)n(C)c2[nH]c1=O`, the EC50 is > 34.7 µM and the half-maximal inhibitory concentration (IC50) was > 34.7 µM.

On to `COc1cc(OC)c(C(=O)CC(=O)c2cc(OC)c(OC)c(OC)c2OC)cc1OC`, for which the EC50 was > 575 µM and the IC50 amounted to 479 µM.

On to `CCCCS(=O)CCC(N)C(=O)O` (centres undefined), for which the EC50 is > 100 µM and the half-maximal inhibitory concentration (IC50) was > 100 µM.

Consider `OC(c1ccoc1)c1cc2ccccc2s1` (centres undefined), for which the EC50 was > 200 µM and the IC50 turned out to be 44.7 µM.

Regarding `COC(=O)[C@@]12CN(C)[C@@H](C(C)(C)C)N1C(=O)OC2c1ccccc1` (some centres undefined), the EC50 was > 200 µM and the IC50 was > 200 µM.

Turning to `COC1=CC(C)C2C[C@H]3O[C@H](O)C[C@H]4C(C)C(=O)C(O)C([C@@]2(C)C1=O)[C@@]34C` (some centres undefined), the outcome was inactive.

Regarding `CCOC(=O)c1ccc(CS(=O)c2ccc([N+](=O)[O-])cc2)c([N+](=O)[O-])c1` (centres undefined), the EC50 is > 69.2 µM and the IC50 came out at 21.4 µM.

Turning to `O=c1[nH]c(=O)n([C@H]2CCCO2)cc1F`, the EC50 is > 631 µM and the 50% inhibitory concentration (IC50) stood at 102 µM.

In the case of `O=Cc1cc(O)ccc1Br`, the EC50 is > 200 µM and the IC50 worked out at 2.95 µM.

Turning to `O=C(CCCn1ccnc1[N+](=O)[O-])NCCn1cnc([N+](=O)[O-])c1`, the EC50 is > 200 µM and the IC50 is > 200 µM.

Regarding `Cc1cc(CN(Cc2ccccc2)Cc2nc3ccccc3[nH]2)c(O)c(CN(Cc2nc3ccccc3[nH]2)Cc2nc3ccccc3[nH]2)c1`, the EC50 was > 200 µM and the IC50 worked out at 24.5 µM.
